The target of series [1] is T1, CYP3A4 (Homo sapiens, UniProt P08684).
T1 construct: pre-incubated with human liver microsomes and NADPH; from tissue; host or cells: human liver microsomes
Description: Cytochrome P450 inhibition assay (midazolam hydroxylation). The series is classed as in vitro ADME. Particulars: human, human liver microsomes, probe midazolam (hydroxylation to 1′-hydroxymidazolam), 10 μM test compound, midazolam at approximately its Km. The method, then: Compounds were tested for the potential to induce drug-drug interactions by inhibition of the cytochrome P450 3A4 isoform. The assay evaluated the metabolism of a specific marker substrate (CYP3A4, midazolam hydroxylation to 1′-hydroxymidazolam) in the presence or absence of 10 μM test compound. The concentration of the marker substrate was approximately its Km (Dixit et al., Biopharm. Drug Dispos. 2007, 28(5), 257-262). A specific inhibitor for the isoform was included in each run to validate the system. An appropriate positive control inhibitor was used. Mechanism-based inhibition was investigated where warranted using a classical method. To evaluate time-dependent inhibition, parallel samples may have been included where […] was pre-incubated with human liver microsomes and NADPH for 30 min prior to the addition of the P450 substrate. The percent inhibition of the pre-incubated and non-pre-incubated samples were compared as a preliminary evaluation of time-dependent inhibition.
(In general: Liver microsomes are vesicles of endoplasmic reticulum, rich in cytochrome P450 enzymes.)

Series [2] addresses T2, OX1 (Homo sapiens, UniProt O43613).
T2 construct: expressed in transfected cells; host or cells: CHO (CHO-OX1, kept under selection antibiotic)
T2 sequence (O43613 1-425): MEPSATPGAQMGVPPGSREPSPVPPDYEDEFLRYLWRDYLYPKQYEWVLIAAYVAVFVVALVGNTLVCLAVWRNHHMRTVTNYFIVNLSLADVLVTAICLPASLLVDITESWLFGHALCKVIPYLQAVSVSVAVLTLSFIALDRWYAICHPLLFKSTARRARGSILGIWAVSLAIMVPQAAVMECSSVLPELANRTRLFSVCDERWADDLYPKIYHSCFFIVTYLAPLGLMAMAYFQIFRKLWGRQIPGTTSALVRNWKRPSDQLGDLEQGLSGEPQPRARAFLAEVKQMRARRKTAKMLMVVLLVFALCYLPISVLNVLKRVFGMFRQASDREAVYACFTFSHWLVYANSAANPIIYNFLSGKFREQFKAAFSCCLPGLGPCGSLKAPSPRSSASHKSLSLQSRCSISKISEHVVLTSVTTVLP
Briefly: Orexin receptor cell-based functional assay, [Ca2+]i by FLIPR, CHO-OX1 cells. Particulars: CHO-OX1 cells, [Ca2+]i by FLIPR, antagonist dose-range 0.1 nM-10 μM, EC90 of OXA; read-out: OX1. The essentials:
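Antagonist mode FLIPR calcium read in CHO-OX1 and CHO-OX2 lines. Test compounds, dosed 0.1 nM-10 μM, preincubated 30 min after 37° C dye loading with 2.5 mM probenecid (calcium4 for 30 min or calcium6 for 2 h).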

T1 sequence (P08684 whole entry): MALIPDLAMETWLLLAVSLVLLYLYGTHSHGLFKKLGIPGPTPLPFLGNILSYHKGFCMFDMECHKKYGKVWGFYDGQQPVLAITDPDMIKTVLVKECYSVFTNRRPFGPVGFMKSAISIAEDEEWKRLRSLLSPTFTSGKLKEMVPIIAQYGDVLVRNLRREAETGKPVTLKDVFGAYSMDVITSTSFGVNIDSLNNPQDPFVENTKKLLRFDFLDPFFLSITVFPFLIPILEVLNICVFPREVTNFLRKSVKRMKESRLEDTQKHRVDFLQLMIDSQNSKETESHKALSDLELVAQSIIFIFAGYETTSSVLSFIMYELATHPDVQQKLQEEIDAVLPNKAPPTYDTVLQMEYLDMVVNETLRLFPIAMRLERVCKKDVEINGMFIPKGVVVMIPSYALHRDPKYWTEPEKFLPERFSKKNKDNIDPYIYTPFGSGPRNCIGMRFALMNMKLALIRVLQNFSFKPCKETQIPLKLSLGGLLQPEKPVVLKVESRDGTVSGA

One may read the inhibition as the relative decrease from the control value, in per cent. A higher inhibition goes with a strong effect. In series [1], `Cc1nc(C(=O)N2CCCC(C)C2CNc2ncc(C(F)(F)F)cn2)c(-c2ccc(F)cc2)s1` (racemic) [Example A311, (+/−)-cis-(5-(4-Fluorophenyl)-2-methylthiazol-4-yl)(3-methyl-2-(((5-(trifluoromethyl)pyrimidin-2-yl)amino)methyl)piperidin-1-yl)methanone] displayed an inhibition at 10 µM of 57%.

Take `COc1ncc(-c2ccc(C)cc2C(=O)N2CCC[C@@H](C)[C@H]2CNc2ccc(C(F)(F)F)cn2)cn1` [Example A4, (2-(2-Methoxypyrimidin-5-yl)-5-methylphenyl)((2S,3R)-3-methyl-2-(((5-(trifluoromethyl)pyridin-2-yl)amino)methyl)piperidin-1-yl)methanone]: 10 µM produced 96% inhibition in series [1].

`Cc1ccc(-c2c(C)noc2C)c(C(=O)N2CCC[C@@H](C)[C@H]2CNc2ccc(C(F)(F)F)cn2)c1` [Example A7, (2-(3,5-Dimethylisoxazol-4-yl)-5-methylphenyl)((2S,3R)-3-methyl-2-(((5-(trifluoromethyl)pyridin-2-yl)amino)methyl)piperidin-1-yl)methanone]: in series [1], the inhibition at 10 µM came to 93%.

With `Cc1nc(C(=O)N2CCC[C@@H](C)[C@H]2CNc2nc3cc(F)ccc3o2)c(-c2ccc(F)cc2)s1` [Example A15, ((2S,3R)-2-(((5-Fluorobenzo[d]oxazol-2-yl)amino)methyl)-3-methylpiperidin-1-yl) (5-(4-fluorophenyl)-2-methylthiazol-4-yl)methanone], in series [1], at 10 µM the inhibition was 78%.

`Cc1ccc(C#N)c(C(=O)N2CCC[C@@H](C)[C@H]2CNc2ccc(C(F)(F)F)cn2)c1` [Example A22, 4-Methyl-2-((2S,3R)-3-methyl-2-(((5-(trifluoromethyl)pyridin-2-yl)amino)methyl)piperidine-1-carbonyl)benzonitrile] registered an inhibition at 10 µM in series [1] of 72%.

As for `Cc1ccc(-c2cncs2)c(C(=O)N2CCC[C@@H](C)[C@H]2CNc2ccc(C(F)(F)F)cn2)c1` [Example A25, ((2S,3R)-3-Methyl-2-(((5-(trifluoromethyl)pyridin-2-yl)amino)methyl)piperidin-1-yl)(5-methyl-2-(thiazol-5-yl)phenyl)methanone], in series [1], the inhibition at 10 µM was found to be 99%.

Turning to `Cc1ccc(-c2cncn2C)c(C(=O)N2CCC[C@@H](C)[C@H]2CNc2ccc(C(F)(F)F)cn2)c1` [Example A26, ((2S,3R)-3-Methyl-2-(((5-(trifluoromethyl)pyridin-2-yl)amino)methyl)piperidin-1-yl)(5-methyl-2-(1-methyl-1H-imidazol-5-yl)phenyl)methanone], the inhibition at 10 µM in series [1] came to 99%.

Compound `Cc1ccc(-c2ccnc(C)n2)c(C(=O)N2CCC[C@@H](C)[C@H]2CNc2nc3cc(Cl)ccc3o2)c1` [Example A27, ((2S,3R)-2-(((5-Chlorobenzo[d]oxazol-2-yl)amino)methyl)-3-methylpiperidin-1-yl)(5-methyl-2-(2-methylpyrimidin-4-yl)phenyl)methanone] showed an inhibition at 10 µM in series [1] of 95%.

`Cc1ccc(-n2cncn2)c(C(=O)N2CCC[C@@H](C)[C@H]2CNc2nc3cc(Cl)ccc3o2)c1` [Example A28, ((2S,3R)-2-(((5-Chlorobenzo[d]oxazol-2-yl)amino)methyl)-3-methylpiperidin-1-yl)(5-methyl-2-(1H-1,2,4-triazol-1-yl)phenyl)methanone]: in series [1], the inhibition at 10 µM was 95%.

In series [1], `Cc1ccc(-c2nccs2)c(C(=O)N2CCC[C@@H](C)[C@H]2CNc2nc3cc(Cl)ccc3o2)c1` [Example A30, ((2S,3R)-2-(((5-Chlorobenzo[d]oxazol-2-yl)amino)methyl)-3-methylpiperidin-1-yl)(5-methyl-2-(thiazol-2-yl)phenyl)methanone] had an inhibition at 10 µM of 97%.

In series [1], `Cc1ccc(-c2cccnc2)c(C(=O)N2CCC[C@@H](C)[C@H]2CNc2nc3cc(Cl)ccc3o2)c1` [Example A31, ((2S,3R)-2-(((5-Chlorobenzo[d]oxazol-2-yl)amino)methyl)-3-methylpiperidin-1-yl)(5-methyl-2-(pyridin-3-yl)phenyl)methanone] had an inhibition at 10 µM of 98%.

Take `Cc1ccc(-c2ccccn2)c(C(=O)N2CCC[C@@H](C)[C@H]2CNc2nc3cc(Cl)ccc3o2)c1` [Example A32, ((2S,3R)-2-(((5-Chlorobenzo[d]oxazol-2-yl)amino)methyl)-3-methylpiperidin-1-yl)(5-methyl-2-(pyridin-2-yl)phenyl)methanone]: the inhibition at 10 µM in series [1] was determined as 92%.

As to `Cc1ccc(-c2ccccn2)c(C(=O)N2CCC[C@@H](C)[C@H]2CNc2ccc(C(F)(F)F)cn2)n1` [Example A217, ((2S,3R)-3-Methyl-2-(((5-(trifluoromethyl)pyridin-2-yl)amino)methyl)piperidin-1-yl)(6′-methyl-[2,3′-bipyridin]-2′-yl)methanone], the IC50 in series [2] came out at 150 nM.

Consider `Cc1ccc(-c2cccnc2)c(C(=O)N2CCC[C@@H](C)[C@H]2CNc2ncc(Cl)cn2)n1` [Example A222, ((2S,3R)-2-(((5-Chloropyrimidin-2-yl)amino)methyl)-3-methylpiperidin-1-yl)(6-methyl-[3,3′-bipyridin]-2-yl)methanone], for which, in series [2], the IC50 turned out to be 82 nM.

As for `Cc1ccc(-c2cccnc2)c(C(=O)N2CCC[C@@H](C)[C@H]2CNc2ccc(Cl)cn2)n1` [Example A224], in series [2], the IC50 stood at 13 nM.

As to `C[C@@H]1CCCN(C(=O)c2nccc3ccccc23)[C@@H]1CNc1ncc(Cl)cn1` [Example A225, ((2S,3R)-2-(((5-Chloropyrimidin-2-yl)amino)methyl)-3-methylpiperidin-1-yl)(isoquinolin-1-yl)methanone], the IC50 in series [2] was 340 nM.

Regarding `C[C@@H]1CCCN(C(=O)c2ccc(F)cc2-n2nccn2)[C@@H]1CNc1ncc(C(F)(F)F)cn1` [Example A251, (4-Fluoro-2-(2H-1,2,3-triazol-2-yl)phenyl)((2S,3R)-3-methyl-2-(((5-(trifluoromethyl)pyrimidin-2-yl)amino)methyl)piperidin-1-yl)methanone], the IC50 in series [2] amounted to 58 nM.

On to `Cc1ccc(C(=O)N2CCC[C@@H](C)[C@H]2CNc2ncc(C(F)(F)F)cn2)c(-n2nccn2)c1` [Example A272, ((2S,3R)-3-Methyl-2-(((5-(trifluoromethyl)pyrimidin-2-yl)amino)methyl)piperidin-1-yl)(4-methyl-2-(2H-1,2,3-triazol-2-yl)phenyl)methanone], for which the IC50 in series [2] stood at 14 nM.

Take `Cc1ccc(C(=O)N2CCC[C@@H](C)[C@H]2CNc2ccc(C(F)(F)F)cn2)c(-n2nccn2)c1` [Example A273, ((2S,3R)-3-Methyl-2-(((5-(trifluoromethyl)pyridin-2-yl)amino)methyl)piperidin-1-yl)(4-methyl-2-(2H-1,2,3-triazol-2-yl)phenyl)methanone]: the IC50 in series [2] worked out at 6 nM.

For the compound `C[C@@H]1CCCN(C(=O)c2c(-n3nccn3)ccc(F)c2F)[C@@H]1CNc1ccc(C(F)(F)F)cn1` [Example A336, (2,3-Difluoro-6-(2H-1,2,3-triazol-2-yl)phenyl)((2S,3R)-3-methyl-2-(((5-(trifluoromethyl)pyridin-2-yl)amino)m*ethyl)piperidin-1-yl)methanone], in series [2], the IC50 was 10 nM.

As to `C[C@@H]1CCCN(C(=O)c2c(-n3nccn3)ccc(F)c2F)[C@@H]1CNc1ncc(C(F)(F)F)cn1` [Example A337, (2,3-Difluoro-6-(2H-1,2,3-triazol-2-yl)phenyl)((2S,3R)-3-methyl-2-(((5-(trifluoromethyl)pyrimidin-2-yl)amino)methyl)piperidin-1-yl)methanone], the IC50 in series [2] came to 9 nM.

On to `COc1ccc(-n2nccn2)c(C(=O)N2CCC[C@@H](C)[C@H]2CNc2ncc(C(F)(F)F)cn2)c1F` [Example A339, (2-Fluoro-3-methoxy-6-(2H-1,2,3-triazol-2-yl)phenyl)((2S,3R)-3-methyl-2-(((5-(trifluoromethyl)pyrimidin-2-yl)amino)methyl)piperidin-1-yl)methanone], for which the IC50 in series [2] was determined as 5 nM.

On to `Cc1c(F)ccc(-n2nccn2)c1C(=O)N1CCC[C@@H](C)[C@H]1CNc1ccc(C(F)(F)F)cn1` [Example A384, (3-Fluoro-2-methyl-6-(2H-1,2,3-triazol-2-yl)phenyl)((2S,3R)-3-methyl-2-(((5-(trifluoromethyl)pyridin-2-yl)amino)methyl)piperidin-1-yl)methanone], for which the IC50 in series [2] was 19 nM.

For `C[C@@H]1CCCN(C(=O)c2c(-c3ncccn3)ccc(F)c2F)[C@@H]1CNc1ncc(C(F)(F)F)cn1` [Example A389, (2,3-Difluoro-6-(pyrimidin-2-yl)phenyl)((2S,3R)-3-methyl-2-(((5-(trifluoromethyl)pyrimidin-2-yl)amino)methyl)piperidin-1-yl)methanone], the IC50 in series [2] came out at 5 nM.

The values above are taken from US9440982B2 (Eolas Therapeutics, Inc., priority 2012, dated 2016).
